# Measured values as given in PubChem BioAssay AID2060512 (Molecular Pharmacology Branch, DTP, NCI, 2025).
# System: 186277-243-T-J2-PDC complex spheroid viability
# Test: Anticancer human tumor 186277-243-T-J2-PDC patient-derived colon adenocarcinoma cell line growth inhibition [GQUAD]
# Conditions: for IC50: curve of first compound; for viability, T/C: stronger effect = lower value
# In short: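 Tumor cells were grown as complex spheroids with HUVEC endothelial cells and mesenchymal stem cells as stroma. G-quadruplex stabilizers were combined with targeted agents over half-log dilutions from near the clinical Cmax, or from 10 microM.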
# [1] = second compound 0.0316 µM, first compound 0.0316 µM
# [2] = second compound 0.0316 µM, first compound 0.1 µM
# [3] = second compound 0.0316 µM, first compound 0.316 µM
# [4] = second compound 0.0316 µM, first compound 1 µM
# [5] = second compound 0.0316 µM, first compound 3.16 µM
# [6] = second compound 0.0316 µM, first compound 10 µM
# [7] = second compound 0.1 µM, first compound 0.0316 µM
# [8] = second compound 0.1 µM, first compound 0.1 µM
# [9] = second compound 0.1 µM, first compound 0.316 µM
# [10] = second compound 0.1 µM, first compound 1 µM
# [11] = second compound 0.1 µM, first compound 3.16 µM
# [12] = second compound 0.1 µM, first compound 10 µM
# [13] = second compound 0.316 µM, first compound 0.0316 µM
# [14] = second compound 0.316 µM, first compound 0.1 µM
# [15] = second compound 0.316 µM, first compound 0.316 µM
# [16] = second compound 0.316 µM, first compound 1 µM
# [17] = second compound 0.316 µM, first compound 3.16 µM
# [18] = second compound 0.316 µM, first compound 10 µM
# [19] = second compound 1 µM, first compound 0.0316 µM
# [20] = second compound 1 µM, first compound 0.1 µM
# [21] = second compound 1 µM, first compound 0.316 µM
# [22] = second compound 1 µM, first compound 1 µM
# [23] = second compound 1 µM, first compound 3.16 µM
# [24] = second compound 1 µM, first compound 10 µM
# [25] = second compound 3.16 µM, first compound 0.0316 µM
# [26] = second compound 3.16 µM, first compound 0.1 µM
# [27] = second compound 3.16 µM, first compound 0.316 µM
# [28] = second compound 3.16 µM, first compound 1 µM
# [29] = second compound 3.16 µM, first compound 3.16 µM
# [30] = second compound 3.16 µM, first compound 10 µM
# [31] = second compound 10 µM, first compound 0.0316 µM
# [32] = second compound 10 µM, first compound 0.1 µM
# [33] = second compound 10 µM, first compound 0.316 µM
# [34] = second compound 10 µM, first compound 1 µM
# [35] = second compound 10 µM, first compound 3.16 µM
# [36] = second compound 10 µM, first compound 10 µM
# 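Further: spheroids exposed to drugs for 7 days.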
# 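Wherever viability, T/C is given: 100% = DMSO vehicle control viability.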
compound,measurement,setting,value
CC(=O)O[C@H]1C(=O)[C@@]2(C)[C@H]([C@H](OC(=O)c3ccccc3)[C@]3(O)C[C@H](OC(=O)[C@H](O)[C@@H](NC(=O)c4ccccc4)c4ccccc4)C(C)=C1C3(C)C)[C@]1(OC(C)=O)CO[C@@H]1C[C@@H]2O + Cc1[nH]c2ccc(F)cc2c1-c1nc2c3cccnc3c3ncccc3c2[nH]1,IC50,second compound 0.0316 µM,< 31.6 nM
same,IC50,second compound 0.1 µM,< 31.6 nM
same,IC50,second compound 0.316 µM,< 31.6 nM
same,IC50,second compound 1 µM,< 31.6 nM
same,IC50,second compound 3.16 µM,< 31.6 nM
same,IC50,second compound 10 µM,< 31.6 nM
same,"viability, T/C",[1],15.7%
same,"viability, T/C",[2],4.95%
same,"viability, T/C",[3],6.22%
same,"viability, T/C",[4],4.92%
same,"viability, T/C",[5],4.75%
same,"viability, T/C",[6],4.49%
same,"viability, T/C",[7],15%
same,"viability, T/C",[8],5.55%
same,"viability, T/C",[9],4.93%
same,"viability, T/C",[10],4.7%
same,"viability, T/C",[11],4.6%
same,"viability, T/C",[12],4.6%
same,"viability, T/C",[13],15.1%
same,"viability, T/C",[14],5.62%
same,"viability, T/C",[15],4.72%
same,"viability, T/C",[16],4.93%
same,"viability, T/C",[17],5.02%
same,"viability, T/C",[18],4.65%
same,"viability, T/C",[19],12%
same,"viability, T/C",[20],5.43%
same,"viability, T/C",[21],4.8%
same,"viability, T/C",[22],4.59%
same,"viability, T/C",[23],4.91%
same,"viability, T/C",[24],4.25%
same,"viability, T/C",[25],11.6%
same,"viability, T/C",[26],5.28%
same,"viability, T/C",[27],4.81%
same,"viability, T/C",[28],3.9%
same,"viability, T/C",[29],5.02%
same,"viability, T/C",[30],4.07%
same,"viability, T/C",[31],12.4%
same,"viability, T/C",[32],5.2%
same,"viability, T/C",[33],3.75%
same,"viability, T/C",[34],3.85%
same,"viability, T/C",[35],4.46%
same,"viability, T/C",[36],3.46%
O=C(NO)c1cnc(N2CCN(S(=O)(=O)c3ccc4ccccc4c3)CC2)nc1 + CN(C)c1ccc(Nc2c3ccc(NC(=O)CCN4CCCC4)cc3nc3cc(NC(=O)CCN4CCCC4)ccc23)cc1,IC50,second compound 0.0316 µM,171 nM
same,IC50,second compound 0.1 µM,176 nM
same,IC50,second compound 0.316 µM,182 nM
same,IC50,second compound 1 µM,176 nM
same,IC50,second compound 3.16 µM,183 nM
same,IC50,second compound 10 µM,183 nM
same,"viability, T/C",[1],103%
same,"viability, T/C",[2],87%
same,"viability, T/C",[3],7.72%
same,"viability, T/C",[4],0.27%
same,"viability, T/C",[5],0.26%
same,"viability, T/C",[6],0.18%
same,"viability, T/C",[7],90.1%
same,"viability, T/C",[8],91.3%
same,"viability, T/C",[9],7.71%
same,"viability, T/C",[10],0.23%
same,"viability, T/C",[11],0.14%
same,"viability, T/C",[12],0.15%
same,"viability, T/C",[13],105%
same,"viability, T/C",[14],94.8%
same,"viability, T/C",[15],8.34%
same,"viability, T/C",[16],0.23%
same,"viability, T/C",[17],0.12%
same,"viability, T/C",[18],0.13%
same,"viability, T/C",[19],92.1%
same,"viability, T/C",[20],90.8%
same,"viability, T/C",[21],7.85%
same,"viability, T/C",[22],0.24%
same,"viability, T/C",[23],0.13%
same,"viability, T/C",[24],0.13%
same,"viability, T/C",[25],104%
same,"viability, T/C",[26],94.2%
same,"viability, T/C",[27],9.96%
same,"viability, T/C",[28],0.26%
same,"viability, T/C",[29],0.16%
same,"viability, T/C",[30],0.15%
same,"viability, T/C",[31],92.5%
same,"viability, T/C",[32],101%
same,"viability, T/C",[33],7.98%
same,"viability, T/C",[34],0.3%
same,"viability, T/C",[35],0.21%
same,"viability, T/C",[36],0.19%
